Legend:
[1] = test system: HIV-1 transcription in 24STNLSG cells; experiment: SEAP assay in 24STNLSG cells (latency reactivation); format: cell-based; details: 72 h; for Max. fold induction, 24STNLSG: SEAP reporter; for EC2X, 24STNLSG: concentration for 2-fold increase in SEAP activity
Experimental: SupT1-derived 24STNLSG cells were plated at 100,000 cells/well in black bottom/black walled 96-well plates in 50 μl RPMI-1640 medium (without phenol red) containing 10% FBS. Compound was added in 50 μl of identical medium using three-fold dose-response dilutions, in duplicate. […] TNF-α, a nuclear factor-κB (NF-κB) activator known to induce HIV- expression in cellular models, was used as a positive control. Plates were incubated for 72 h at 37°C, 5% CO2. Plates were then sealed and heated to 65°C for 30 min. Plates were brought to room temperature and 50 μl assay buffer (1 mM MgCl2, 10 mM L-homoarginine, 1 M diethylamine hydrochloride) was added to each well and incubated for 5 min at room temperature. To each well, 50 μl of CSPD Substrate (0.4 mM Ready-to-Use with Sapphire-II Enhancer; Applied Biosystems, Foster City, CA) was added. Plates were incubated for 20 min at room temperature and read on a ViewLux microplate imager (Perkin Elmer, Waltham, MA). Curves were fit by non-linear regression using Prism software (GraphPad, San Diego, CA).

HIV-1 RNA in U1 cells = experiment: HIV-1 transcription in U1 cells (qRT-PCR); format: cell-based; details: 30 μM, 24 h, qRT-PCR (Fig 3)
Experimental: ACH-2 cells were maintained in RPMI-1640 medium without phenol red and with 10% FBS at 37°C in a 5% CO2 atmosphere. Cells were plated at 5000/well in 96-well round-bottom plated and test compounds were added in a final concentration of 0.5% DMSO, in duplicate. Cells were incubated for 24 h at 37°C, 5% CO2, then pelleted at 2000 × g for 5 min followed by washing in 0.1 ml PBS. RNA was isolated using Invitrogen PureLink 96 RNA Purification Kit with vacuum manifold per the manufacturer’s instructions, including DNase I treatment. HIV-1 transcripts were detected using TaqMan® RNA-to-CT™ 1-step kit (Applied Biosystems, Foster City, CA) and primers/probe specific to gag (SK38 forward: 5ʹ-[…]-3ʹ; SK39 reverse: 5ʹ-[…]-3ʹ; SK19 probe: 5ʹ-6FAM […] TAMRA-3ʹ) or tat (forward: 5ʹ-[…]-3ʹ; reverse: 5ʹ-[…]-3ʹ; probe: 5ʹ-6FAM […]-3ʹ). GAPDH RNA was monitored in all assays as an endogenous control for selectivity using a pre-developed TaqMan assay reagent (Applied Biosystems, Foster City, CA). RNA was quantified on an Applied Biosystems 7900HT. PCR replicates were performed for each biological replicate. Viral RNA expression was normalized to GAPDH RNA and data are expressed as the change from vehicle-only control wells.
Fig 3 Compounds 1 and 2 induce HIV-1 transcription in ACH-2 and U1. […] RNA was prepared and HIV expression was monitored by qRT-PCR. […]

HIV-1 LTR = experiment: HIV LTR-driven Rluc reporter in HeLa cells; format: cell-based; details: transfected HeLa cells, 24 h
From the text: The vector pGL4.77[hRlucP/Hygro] encoding a Renilla luciferase gene including a PEST destabilization sequence, was purchased from Promega (Madison, WI). HIV-1 cDNA was generated from HIVIIIB virus using PureLink® Viral RNA/DNA Mini Kit (Invitrogen). The HIV-1 core promoter region (nucleotides -105 to 60) was amplified from HIVIIIB cDNA using primers designed with NheI (forward: 5ʹ-GCTAGCGGGACTTTCCGCTGGG-3ʹ) and XhoI (reverse: 5ʹ-CTCGAGAGTGGGTTCCCTAGTTAGCCA-3ʹ) flanking restriction site sequences. DNA fragments were generated using Platinum® Taq DNA Polymerase High Fidelity (Invitrogen) and fragment size was verified by electrophoresis using E-Gel® 1.2% agarose (Invitrogen). Fragments were cloned into pCR™2.1 TOPO® (Invitrogen), transformed into One Shot® TOP10 Chemically Competent E. coli (Invitrogen), and selected on LB-agar plates containing 100 μg/ml ampicillin. Individual colonies were grown in LB broth, DNA was isolated using QIAprep® Spin Miniprep Kit (Qiagen), and the inserted fragment was verified by EcoRI digestion followed by electrophoresis using E-Gel® 1.2% agarose (Invitrogen). To insert the HIV-1 LTR into the vector multiple cloning region, the resultant plasmids and pGL4.77[hRlucP/Hygro] were dually digested with NheI and XhoI (New England Biolabs), ligated using ExpressLink™ T4 DNA Ligase (Invitrogen), transformed into One Shot® TOP10 Chemically Competent E. coli (Invitrogen), and selected on LB-agar plates containing 100 μg/ml ampicillin. Clones were picked and DNA isolated using QIAprep® Spin Miniprep Kit (Qiagen) and the inserted fragment was verified by NheI/XhoI digestion followed by electrophoresis using E-Gel® 1.2% agarose (Invitrogen). The resultant plasmid, pGL4.77-LTR, was verified by sequencing at GENEWIZ (South Plainfield, NJ). […] Luciferase activity was quantified using Renilla Luciferase Assay System (Promega, Madison, WI) and results were normalized to the vehicle-treated control.

[2] = Microsome assay, human liver microsomes; format: in vitro ADME
Experimental: Human and mouse liver microsomes were obtained from XenoTech, LLC (Kansas City, KS). The reaction mixture was composed of liver microsomes (0.5 mg/mL), 20 mM Tris-HCl pH 7.4, 2.5 mM MgCl2, and an NADPH generating system (0.1 mM NADP, 1.2 mM glucose-6-phosphate and 0.3 units/ml glucose-6-phophate dehydrogenase). […] Test compounds were added to the microsome reaction and loss of parent molecule was monitored after 1 h by LC/MS/MS.

SMILES	Max. fold induction, 24STNLSG [1]	EC2X, 24STNLSG [1] [µM]	Induction of HIV-1 transcription in U1 cells (in words) (HIV-1 RNA in U1 cells)	Transcription driven by the HIV-1 LTR (in words) (HIV-1 LTR)	HLM stability (% loss of parent compound at 1 h) [2] [%]	Max. fold induction, 24STNLSG ([1]; listed as Cmpd 1) [fold]
Nc1ccc2[nH]c(-c3ccc(-c4nc5ccc(N)cc5o4)cc3)nc2c1 [Compound 2]	76 fold	2.7 ± 2.3	induced HIV-1 transcription	did not significantly increase transcription	61	
Nc1ccc2[nH]c(-c3ccc(-c4nc5cc(N)ccc5o4)cc3)nc2c1 [Compound 1, 2-(4-(5-amino-1H-benzimidazol-2-yl)phenyl)benzoxazol-5-amine]	up to 80 fold	1.5 ± 0.7	induced HIV-1 transcription	did not significantly increase transcription	57	80

— paper PMC5489165, “Identification of benzazole compounds that induce HIV-1 transcription” (PLoS ONE, 2017)
